Assays:
[1] = DMS trace
Protocol: A dynamic moisture sorption (DMS) assessment (also known as a moisture sorption-desorption profile) was performed using a VTI atmospheric microbalance, SGA-100 system (VTI Corp., Hialeah, Fla. 33016). A sample size of approximately 10 mg was used and the humidity was set at the ambient value at the start of the analysis. A typical DMS analysis consisted of three scans: ambient to 2% relative humidity (RH), 2% RH to 90% RH, 90% RH to 5% RH at a scan rate of 5% RH/step. The mass was measured every two minutes and the RH was changed to the next value (+/−5% RH) when the mass of the sample was stable to within 0.01% for 5 consecutive points.

[2] = pH 5
Protocol: A solution was prepared with 0.5 mg/mL freebase equivalents (using a crystalline diphosphate salt prepared as described in Example 3) in 10 mM citrate buffered normal saline, pH 5. […] Less than 0.5% degradation was observed after storage for one month at 40° C./75% RH.

[3] = six weeks at −20° C. (closed) and 40° C./75% RH (open and closed)
Protocol: At specific intervals, the entire contents of a representative vial was analyzed by the following HPLC method: […]

[4] = DSC trace, 10° C./min
Protocol: Differential scanning calorimetry (DSC) was performed using a TA Instruments Model Q-10 module with a Thermal Analyst controller. Data were collected and analyzed using TA Instruments Thermal Solutions software. A sample of about 1-4 mg was accurately weighed into an aluminum pan with lid. The sample was evaluated using a linear heating ramp of 10° C./min from ambient temperature to approximately 300° C. The DSC cell was purged with dry nitrogen during use.

Row | Structure (SMILES) | sorption/desorption profile and hygroscopicity [1] | weight gain when exposed to 2-90% RH [1] [%] | weight gain in the humidity range of 40-75% RH [1] [%] | degradation of solution after storage ([2]; 0.5 mg/mL freebase equivalents in 10 mM citrate buffered normal saline, one month at 40° C./75% RH) | solubility of the crystalline salt ([2]; 10 mM citrate buffered normal saline) | solid state stability: change in chemical purity [3] | temperature below which no thermal decomposition occurs [4] [°C]
1 | CN(CCN1CCC(OC(=O)Nc2ccccc2-c2ccccc2)CC1)C(=O)c1ccc(CN2CCC(C(N)=O)CC2)cc1.O=P(O)(O)O.O=P(O)(O)O [Example 3, Crystalline Diphosphate Salt of Biphenyl-2-ylcarbamic Acid 1-(2-{[4-(4-Carbamoylpiperidin-1-ylmethyl)benzoyl]methylamino}ethyl)piperidin-4-yl Ester] | reversible sorption/desorption profile with low hygroscopicity | 3.3 | 0.6 | Less than 0.5% | greater than 40 mg/mL of freebase equivalent | no detectable change in chemical purity | ≥ 150
2 | CN(CCN1CCC(OC(=O)Nc2ccccc2-c2ccccc2)CC1)C(=O)c1ccc(CN2CCC(C(N)=O)CC2)cc1.O=C(O)C(=O)O.O=C(O)C(=O)O [Example 7, Crystalline Dioxalate Salt of Biphenyl-2-ylcarbamic Acid 1-(2-{[4-(4-Carbamoylpiperidin-1-ylmethyl)benzoyl]methylamino}ethyl)piperidin-4-yl Ester] | reversible sorption/desorption profile with low hygroscopicity | 5.3 | 1.1 | – | – | – | –
3 | CN(CCN1CCC(OC(=O)Nc2ccccc2-c2ccccc2)CC1)C(=O)c1ccc(CN2CCC(C(N)=O)CC2)cc1 [Example 10, Crystalline Freebase Biphenyl-2-ylcarbamic Acid 1-(2-{[4-(4-Carbamoylpiperidin-1-ylmethyl)benzoyl]methylamino}ethyl)piperidin-4-yl Ester (Form I)] | reversible sorption/desorption profile with low hygroscopicity | 10 | 1.2 | – | – | – | ≥ 80
4 | CN(CCN1CCC(OC(=O)Nc2ccccc2-c2ccccc2)CC1)C(=O)c1ccc(CN2CCC(C(N)=O)CC2)cc1.O=S(=O)(O)O [Example 5, Crystalline Monosulfate Salt of Biphenyl-2-ylcarbamic Acid 1-(2-{[4-(4-Carbamoylpiperidin-1-ylmethyl)benzoyl]methylamino}ethyl)piperidin-4-yl Ester] | reversible sorption/desorption profile with low hygroscopicity | 10 | 1.8 | – | – | – | –
5 | CN(CCN1CCC(OC(=O)Nc2ccccc2-c2ccccc2)CC1)C(=O)c1ccc(CN2CCC(C(N)=O)CC2)cc1 [Example 11, Crystalline Freebase Biphenyl-2-ylcarbamic Acid 1-(2-{[4-(4-Carbamoylpiperidin-1-ylmethyl)benzoyl]methylamino}ethyl)piperidin-4-yl Ester (Form II)] | reversible sorption/desorption profile with low hygroscopicity | 9 | 1.3 | – | – | – | ≥ 75

Source: patent publication US11390603B2, “Crystalline forms of a biphenyl compound” (THERAVANCE BIOPHARMA R&D IP, LLC, priority 2005, dated 2022)
